The target in this assay is memapsin 2 (Homo sapiens, UniProt P56817). Briefly: Inhibition of memapsin 2 beta-secretase activity (fluorogenic substrate FS-2). It is filed as biochemical. The settings on record: memapsin 2, pH 4, 37° C., read-out: M2Ki. The essentials:
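Memapsin 2 pre-incubated 20 min with compound at pH 4, 37° C, then FS-2 substrate (MCA-SEVNLDAEFK-DNP, APP Swedish cleavage site) added. Rate of fluorescence increase compared with uninhibited controls, fitted to a tight-binding inhibition model.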

Read-outs that look alike come from different tables or passages of the source.

Sequence of memapsin 2 (P56817 46-501): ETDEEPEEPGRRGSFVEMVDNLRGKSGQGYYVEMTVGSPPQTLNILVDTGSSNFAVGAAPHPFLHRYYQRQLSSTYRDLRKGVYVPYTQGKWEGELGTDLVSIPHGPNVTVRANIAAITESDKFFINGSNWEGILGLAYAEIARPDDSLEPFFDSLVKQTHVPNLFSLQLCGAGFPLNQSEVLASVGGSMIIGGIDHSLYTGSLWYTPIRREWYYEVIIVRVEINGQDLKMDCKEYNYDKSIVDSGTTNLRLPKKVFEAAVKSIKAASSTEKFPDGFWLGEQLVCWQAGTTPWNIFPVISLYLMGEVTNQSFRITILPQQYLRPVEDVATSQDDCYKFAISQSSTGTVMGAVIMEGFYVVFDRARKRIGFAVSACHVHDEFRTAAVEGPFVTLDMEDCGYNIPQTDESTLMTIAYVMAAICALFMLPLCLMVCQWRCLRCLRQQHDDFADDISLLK

As for `COc1cccc(CNC[C@@H](O)[C@H](Cc2ccccc2)NC(=O)c2cccc(C(=O)Nc3nc(C)cs3)c2)c1` [Compound 80, N1-((2S,3R)-3-hydroxy-4-(3-methoxybenzylamino)-1-phenylbutan-2-yl)-N3-(4-methylthiazol-2-yl)isophthalamide], the Ki (20 minutes pre-incubation) was more than 501 nM.

Turning to `Cc1csc(CN(C)C(=O)c2cc(C(=O)N[C@@H](Cc3ccccc3)[C@H](O)CNCc3cccc(C(F)(F)F)c3)cc(-c3ccco3)c2)n1` [Compound 305, 5-(furan-2-yl)-N1-((2S,3R)-3-hydroxy-1-phenyl-4-(3-(trifluoromethyl)benzylamino)butan-2-yl)-N3-methyl-N3-((4-methylthiazol-2-yl)methyl)isophthalamide], the Ki (fluorogenic substrate FS-2) is less than 300 nM. The same measure, in the same setting: in the case of `Cc1csc(CN(C)C(=O)c2cccc(C(=O)N[C@@H](Cc3ccccc3)[C@H](O)CNCc3cc(OC(=O)CN(C)C)cc(C(C)C)c3)c2)n1` [Compound 311, 3-(((2R,3S)-2-hydroxy-3-(3-(methyl((4-methylthiazol-2-yl)methyl)carbamoyl)benzamido)-4-phenylbutylamino)methyl)-5-isopropylphenyl 2-(dimethylamino)acetate] it was less than 300 nM. With `COC(=O)[C@H](CO)NC(=O)c1cc(C(=O)N[C@@H](Cc2ccccc2)[C@H](O)CNCc2cccc(OC)c2)cc(C(=O)N(C)Cc2nc(C)cs2)c1` [Compound 62, (S)-methyl 3-hydroxy-2-(3-((2S,3R)-3-hydroxy-4-(3-methoxybenzylamino)-1-phenylbutan-2-ylcarbamoyl)-5-(methyl((4-methylthiazol-2-yl)methyl)carbamoyl)benzamido)propanoate], where the note is “20 minutes pre-incubation”, the Ki was less than 300 nM. Take `COc1cccc([C@@H](C)NC[C@@H](O)[C@H](Cc2ccccc2)NC(=O)c2cc(C(=O)N(C)Cc3nc(C)cs3)cc(-c3ncco3)c2)c1` [Compound 290, N1-((2S,3R)-3-hydroxy-4-((R)-1-(3-methoxyphenyl)ethylamino)-1-phenylbutan-2-yl)-N3-methyl-N3-((4-methylthiazol-2-yl)methyl)-5-(oxazol-2-yl)isophthalamide]: where the note is “fluorogenic substrate FS-2”, the Ki is less than 300 nM. For the compound `Cc1csc(CN(C)C(=O)c2cccc(C(=O)N[C@@H](Cc3ccccc3)[C@H](O)CNS(=O)(=O)c3cccc(C(F)(F)F)c3)c2)n1` [Compound 310, N1-((2S,3R)-3-hydroxy-1-phenyl-4-(3-(trifluoromethyl)phenylsulfonamido)butan-2-yl)-N3-methyl-N3-((4-methylthiazol-2-yl)methyl)isophthalamide], for the setting “fluorogenic substrate FS-2”, the Ki was more than 501 nM. For `COc1cccc(CNC[C@@H](O)[C@H](Cc2ccccc2)NC(=O)c2cccc(C(=O)N(C)Cc3ccco3)c2)c1` [Compound 14, N1-(furan-2-ylmethyl)-N3-((2S,3R)-3-hydroxy-4-(3-methoxybenzylamino)-1-phenylbutan-2-yl)-N1-methylisophthalamide], under “20 minutes pre-incubation”, the Ki is more than 501 nM. Same read-out and setting: in the case of `COc1cccc(CNC[C@@H](O)[C@H](Cc2ccccc2)NC(=O)c2cccc(C(=O)N(C)Cc3ccccn3)c2)c1` [Compound 45, N1-((2S,3R)-3-hydroxy-4-(3-methoxybenzylamino)-1-phenylbutan-2-yl)-N3-methyl-N3-(pyridin-2-ylmethyl)isophthalamide] it was more than 501 nM.

For `CC(C)c1cncc(CNC[C@@H](O)[C@H](Cc2ccccc2)NC(=O)c2cccc(C(=O)N(C)Cc3nc(C(F)F)cs3)c2)c1` [Compound 285, N1-((4-(difluoromethyl)thiazol-2-yl)methyl)-N3-((2S,3R)-3-hydroxy-4-((5-isopropylpyridin-3-yl)methylamino)-1-phenylbutan-2-yl)-N1-methylisophthalamide], where the note is “fluorogenic substrate FS-2”, the Ki was less than 300 nM. Consider `Cc1csc(CN(C)C(=O)c2cc(C(=O)N[C@@H](Cc3ccccc3)[C@H](O)CNCc3cncc(C(C)C)c3)cc(-n3ccnc3)c2)n1` [Compound 300, N1-((2S,3R)-3-hydroxy-4-((5-isopropylpyridin-3-yl)methylamino)-1-phenylbutan-2-yl)-5-(1H-imidazol-1-yl)-N3-methyl-N3-((4-methylthiazol-2-yl)methyl)isophthalamide], for which the Ki (fluorogenic substrate FS-2) was less than 300 nM. In the case of `CNc1cc(C(=O)N[C@@H](Cc2ccccc2)[C@H](O)CNCc2cccc(OC)c2)cc(C(=O)N(C)Cc2nc(C)cs2)c1` [Compound 76, N1-((2S,3R)-3-hydroxy-4-(3-methoxybenzylamino)-1-phenylbutan-2-yl)-N3-methyl-5-(methylamino)-N3-((4-methylthiazol-2-yl)methyl)isophthalamide], the Ki (20 minutes pre-incubation) was less than 300 nM.

As for `COc1cccc(CNC[C@@H](O)[C@H](Cc2ccccc2)NC(=O)c2cccc(C(=O)N(C)Cc3cccc(C)n3)c2)c1` [Compound 108, N1-((2S,3R)-3-hydroxy-4-(3-methoxybenzylamino)-1-phenylbutan-2-yl)-N3-methyl-N3-((6-methylpyridin-2-yl)methyl)isophthalamide], the Ki (20 minutes pre-incubation) fell in the range of 301 to 500 nM. `CN(Cc1nc(C(F)F)cs1)C(=O)c1cccc(C(=O)N[C@@H](Cc2ccccc2)[C@H](O)CNCc2cncc(C(C)(C)F)c2)c1` [Compound 286, N1-((4-(difluoromethyl)thiazol-2-yl)methyl)-N3-((2S,3R)-4-((5-(2-fluoropropan-2-yl)pyridin-3-yl)methylamino)-3-hydroxy-1-phenylbutan-2-yl)-N1-methylisophthalamide]: the Ki (fluorogenic substrate FS-2) is less than 300 nM. As for `Cc1csc(CN(C)C(=O)c2cccc(C(=O)N[C@@H](Cc3ccccc3)[C@H](O)CNCc3cccc4cc[nH]c34)c2)n1` [Compound 39, N1-((2S,3R)-4-((1H-indol-7-yl)methylamino)-3-hydroxy-1-phenylbutan-2-yl)-N3-methyl-N3-((4-methylthiazol-2-yl)methyl)isophthalamide], the Ki (20 minutes pre-incubation) was less than 300 nM. `COc1cccc(CNC[C@@H](O)[C@H](Cc2ccccc2)NC(=O)c2cc(OC)cc(C(=O)N[C@H](C)c3ccccc3)c2)c1` [Compound 69, N1-((2S,3R)-3-hydroxy-4-(3-methoxybenzylamino)-1-phenylbutan-2-yl)-5-methoxy-N3-((R)-1-phenylethyl)isophthalamide]: where the note is “20 minutes pre-incubation”, the Ki was more than 501 nM.

For the compound `Cc1csc(CN(C)C(=O)c2cccc(C(=O)N[C@@H](Cc3ccccc3)[C@H](O)CNC(C)c3cccnc3)c2)n1` (stereo partly drawn) [Compound 43, N1-((2S,3R)-3-hydroxy-1-phenyl-4-(1-(pyridin-3-yl)ethylamino)butan-2-yl)-N3-methyl-N3-((4-methylthiazol-2-yl)methyl)isophthalamide], for the setting “20 minutes pre-incubation”, the Ki was more than 501 nM. On to `Cc1csc(CN(C)C(=O)c2cc(C(=O)N[C@@H](Cc3ccccc3)[C@H](O)CNCc3cccc(C(F)(F)F)c3)cc(-c3ncco3)c2)n1` [Compound 289, N1-((2S,3R)-3-hydroxy-1-phenyl-4-(3-(trifluoromethyl)benzylamino)butan-2-yl)-N3-methyl-N3-((4-methylthiazol-2-yl)methyl)-5-(oxazol-2-yl)isophthalamide], for which the Ki (fluorogenic substrate FS-2) was less than 300 nM. For the compound `COC(=O)[C@@H]1COC(c2cc(C(=O)N[C@@H](Cc3ccccc3)[C@H](O)CNCc3cccc(OC)c3)cc(C(=O)N(C)Cc3nc(C)cs3)c2)=N1` [Compound 63, (S)-methyl 2-(3-((2S,3R)-3-hydroxy-4-(3-methoxybenzylamino)-1-phenylbutan-2-ylcarbamoyl)-5-(methyl((4-methylthiazol-2-yl)methyl)carbamoyl)phenyl)-4,5-dihydrooxazole-4-carboxylate], the Ki (20 minutes pre-incubation) is more than 501 nM. As for `Cc1csc(CN(C)C(=O)c2cccc(C(=O)N[C@@H](Cc3ccccc3)[C@H](O)CNCc3cncc(C(C)CO)c3)c2)n1` (stereo partly drawn) [Compound 313, N1-((2S,3R)-3-hydroxy-4-((5-(1-hydroxypropan-2-yl)pyridin-3-yl)methylamino)-1-phenylbutan-2-yl)-N3-methyl-N3-((4-methylthiazol-2-yl)methyl)isophthalamide], the Ki (fluorogenic substrate FS-2) is less than 300 nM.

For `Cc1csc(CN(C)C(=O)c2cccc(C(=O)N[C@@H](Cc3ccccc3)[C@H](O)CNCc3cccc(C(F)(F)F)c3O)c2)n1` [Compound 291, N1-((2S,3R)-3-hydroxy-4-(2-hydroxy-3-(trifluoromethyl)benzylamino)-1-phenylbutan-2-yl)-N3-methyl-N3-((4-methylthiazol-2-yl)methyl)isophthalamide], the Ki (fluorogenic substrate FS-2) is more than 501 nM. With `COc1cccc(S(=O)(=O)NC[C@@H](O)[C@H](Cc2ccccc2)NC(=O)c2cccc(C(=O)N(C)Cc3nc(C)cs3)c2)c1` [Compound 309, N1-((2S,3R)-3-hydroxy-4-(3-methoxyphenylsulfonamido)-1-phenylbutan-2-yl)-N3-methyl-N3-((4-methylthiazol-2-yl)methyl)isophthalamide], where the note is “fluorogenic substrate FS-2”, the Ki was more than 501 nM. In the case of `COCCn1ncc(CNC[C@@H](O)[C@H](Cc2ccccc2)NC(=O)c2cccc(C(=O)N(C)Cc3nc(C)cs3)c2)c1C` [Compound 132, N1-((2S,3R)-3-hydroxy-4-((1-(2-methoxyethyl)-5-methyl-1H-pyrazol-4-yl)methylamino)-1-phenylbutan-2-yl)-N3-methyl-N3-((4-methylthiazol-2-yl)methyl)isophthalamide], under “20 minutes pre-incubation”, the Ki is more than 501 nM.

As to `C=C(C)c1cc(O)cc(CNC[C@@H](O)[C@H](Cc2ccccc2)NC(=O)c2cccc(C(=O)N(C)Cc3nc(C)cs3)c2)c1` [Compound 159, N1-((2S,3R)-3-hydroxy-4-(3-hydroxy-5-(prop-1-en-2-yl)benzylamino)-1-phenylbutan-2-yl)-N3-methyl-N3-((4-methylthiazol-2-yl)methyl)isophthalamide], under “20 minutes pre-incubation”, the Ki was less than 300 nM. For the compound `Cc1csc(CN(C)C(=O)c2cccc(C(=O)N[C@H](Cc3ccccc3)[C@@H](O)CNCc3cncc(C(C)C)c3)c2)n1` [Compound 128, N1-((2R,3S)-3-hydroxy-4-((5-isopropylpyridin-3-yl)methylamino)-1-phenylbutan-2-yl)-N3-methyl-N3-((4-methylthiazol-2-yl)methyl)isophthalamide], the Ki (20 minutes pre-incubation) was more than 501 nM.
